Patent publication US9161993B2, “Charge triggering of self-organized nanoparticles” (Danmarks Tekniske Universitet, priority 2011, dated 2015)

Target: Thermolysin (Bacillus thermoproteolyticus, UniProt P00800)
Details: liposomes exposing RJ111; linker Trp-Ile-Pro-Val-Ser-Leu-Arg-Ser-Gly
Experimental: The size and ζ-potential (zeta potential) of RJ111 formulated liposomes were measured before and after enzymatic cleavage of the RJ111 peptide linker using Thermolysin as a model enzyme. RJ111 formulated liposomes were mixed with a buffered solution of Thermolysine yielding final concentrations of: 2.2 mM lipid (220 μM RJ111), 220 μg/ml Thermolysine, 1 uM, ZnCl2 0.5 mM CaCl2, 30 mM HEPES and 125 mM NaCl. The reaction mixtures containing Thermolysine and RJ111 formulated in liposomes were heated to 37° C. for a period of 12 hours and the size and ζ-potential were subsequently measured in an equi-osmolar solution of 300 mM Glucose, 10 mM HEPES (pH 7.4) and 1 mM CaCl2. The ζ-potential and size of the non-cleaved RJ111 formulations were measured (ZetaPALS, Brookhaven Instruments Corp., Holtsville, N.Y., USA) in an equi-osmolar solution of 300 mM Glucose, 10 mM HEPES (pH 7.4) and 1 mM CaCl2.

Sequence of Thermolysin (P00800 233-548, species assumed): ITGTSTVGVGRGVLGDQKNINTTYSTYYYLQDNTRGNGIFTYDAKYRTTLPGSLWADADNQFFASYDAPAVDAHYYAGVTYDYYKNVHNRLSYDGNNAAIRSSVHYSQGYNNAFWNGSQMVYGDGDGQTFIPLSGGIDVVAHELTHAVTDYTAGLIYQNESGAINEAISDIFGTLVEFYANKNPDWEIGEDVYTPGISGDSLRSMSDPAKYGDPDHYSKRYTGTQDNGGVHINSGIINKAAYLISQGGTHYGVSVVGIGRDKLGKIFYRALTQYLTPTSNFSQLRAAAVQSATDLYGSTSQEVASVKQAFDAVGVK

## (C14)2-dap-Trp-Ile-Pro-Val-Ser-Leu-Arg-Ser-Gly-Glu-Glu-Glu-Glu-PEG2000-OH [RJ111]
  cleavage of peptide linker by Thermolysine: efficiently was cleaved
